Among the data in patent US10183019B2, “Treatment of cancer with dihydropyrazino-pyrazines” (Signal Pharmaceuticals, LLC, priority 2013, dated 2019) are IC50 values, retold here.

A word on the IC50: it is the concentration that gives 50% inhibition.

Common to all, as to test: Gliomasphere Cell Number Assay
What all share (type): cell-based

Experiment [1] has as its system patient-derived GBM cell line 157. To be noted: cell line 157, Primary, MGMT status −; 50% cell numbers vs DMSO control, Day 2 to Day 9; read-out: IC50 Cell Survival. Here is the method:
(§1) Gliomasphere Cell Number Assay. Primary patient-derived GBM tumor samples were dissociated and plated under culture conditions that produce gliomaspheres (i.e. DMEM/F12 medium supplemented with B27, 20 ng/mL bFGF, 50 ng/mL EGF, penicillin/streptomycin, L-glutamine and 5 ug/mL heparin). Cells were plated at a density of 5000 cells/well and allowed to acclimate overnight at 37° C. The Dihydropyrazino-Pyrazine Compounds were added to the cultures on Day 2 and cells were kept in culture until Day 9. On Day 9, the cells were fixed with PFA/methanol and the next day assessed for cell number, using for example, SYTO-9 fluorescent DNA dye. Plates were read 48 h later with a laser scanning imager.

The test system of experiment [2] is patient-derived GBM cell line 206. The conditions noted are these: cell line 206, Recurrent, MGMT Unkn/Highly Expressed; 50% cell numbers vs DMSO control, Day 2 to Day 9; read-out: IC50 Cell Survival. The method, then: as §1
Experiment [3] relates to patient-derived GBM cell line 207. The conditions noted are these: cell line 207, Recurrent; 50% cell numbers vs DMSO control, Day 2 to Day 9; read-out: IC50 Cell Survival. Here is the method: as §1
In experiment [4] the test system is patient-derived GBM cell line 217. To be noted: cell line 217, Primary; 50% cell numbers vs DMSO control, Day 2 to Day 9; read-out: IC50 Cell Survival. The method, then: as §1
Experiment [5] relates to patient-derived GBM cell line 229. To be noted: cell line 229, Recurrent; 50% cell numbers vs DMSO control, Day 2 to Day 9; read-out: IC50 Cell Survival. The method, then: as §1
The subject of experiment [6] is patient-derived GBM cell line 245. To be noted: cell line 245, Recurrent; 50% cell numbers vs DMSO control, Day 2 to Day 9; read-out: IC50 Cell Survival. Here is the method: as §1
In experiment [7] the test system is patient-derived GBM cell line 248. The conditions noted are these: cell line 248, Recurrent, MGMT status Slightly elevated; 50% cell numbers vs DMSO control, Day 2 to Day 9; read-out: IC50 Cell Survival. Here is the method: as §1
The subject of experiment [8] is patient-derived GBM cell line 250. To be noted: cell line 250, Recurrent, MGMT Unkn/Highly Expressed; 50% cell numbers vs DMSO control, Day 2 to Day 9; read-out: IC50 Cell Survival. The method, then: as §1
Experiment [9] has as its system patient-derived GBM cell line 254. The conditions noted are these: cell line 254, Recurrent; 50% cell numbers vs DMSO control, Day 2 to Day 9; read-out: IC50 Cell Survival. Here is the method:
as §1

For experiment [10], the system named is patient-derived GBM cell line 277. The conditions noted are these: cell line 277, Secondary/Recurrent; 50% cell numbers vs DMSO control, Day 2 to Day 9; read-out: IC50 Cell Survival. The method, then: as §1
For experiment [11], the system named is patient-derived GBM cell line 296. The conditions noted are these: cell line 296, Recurrent, MGMT status −; 50% cell numbers vs DMSO control, Day 2 to Day 9; read-out: IC50 Cell Survival. Here is the method: as §1
Experiment [12] relates to patient-derived GBM cell line 301. The conditions noted are these: cell line 301, Primary, MGMT status −; 50% cell numbers vs DMSO control, Day 2 to Day 9; read-out: IC50 Cell Survival. Here is the method: as §1
Experiment [13] relates to patient-derived GBM cell line 308. The conditions noted are these: cell line 308, Recurrent, MGMT Unkn/Highly Expressed; 50% cell numbers vs DMSO control, Day 2 to Day 9; read-out: IC50 Cell Survival. Here is the method:
as §1

In experiment [14] the test system is patient-derived GBM cell line 336. The conditions noted are these: cell line 336, Recurrent, MGMT status +; 50% cell numbers vs DMSO control, Day 2 to Day 9; read-out: IC50 Cell Survival. The method, then:
as §1

The subject of experiment [15] is patient-derived GBM cell line 347. To be noted: cell line 347, Recurrent, MGMT status −; 50% cell numbers vs DMSO control, Day 2 to Day 9; read-out: IC50 Cell Survival. Here is the method:
as §1

Experiment [16] concerns patient-derived GBM cell line 350. To be noted: cell line 350, Recurrent; 50% cell numbers vs DMSO control, Day 2 to Day 9; read-out: IC50 Cell Survival. The method, then: as §1
In experiment [17] the test system is patient-derived GBM cell line 371. The conditions noted are these: cell line 371, Recurrent, MGMT status −; 50% cell numbers vs DMSO control, Day 2 to Day 9; read-out: IC50 Cell Survival. Here is the method:
as §1

Experiment [18] has as its system patient-derived GBM cell line 374. The conditions noted are these: cell line 374, Primary, MGMT status −; 50% cell numbers vs DMSO control, Day 2 to Day 9; read-out: IC50 Cell Survival. The method, then:
as §1

In experiment [19] the test system is patient-derived GBM cell line 378. To be noted: cell line 378, Recurrent, MGMT status −; 50% cell numbers vs DMSO control, Day 2 to Day 9; read-out: IC50 Cell Survival. The method, then: as §1
For experiment [20], the system named is patient-derived GBM cell line 390. The conditions noted are these: cell line 390, Primary, MGMT status −; 50% cell numbers vs DMSO control, Day 2 to Day 9; read-out: IC50 Cell Survival. Here is the method:
as §1

Experiment [21] concerns patient-derived GBM cell line 393. The conditions noted are these: cell line 393, Primary, MGMT status +; 50% cell numbers vs DMSO control, Day 2 to Day 9; read-out: IC50 Cell Survival. Here is the method: as §1

The structures appear in SMILES notation.

As for `CCN1C(=O)CNc2ncc(-c3ccc(-c4nc[nH]n4)nc3C)nc21` [Compound 1, 1-ethyl-7-(2-methyl-6-(1H-1,2,4-triazol-3-yl)pyridin-3-yl)-3,4-dihydropyrazino[2,3-b]pyrazin-2(1H)-one], the IC50 was 46.8 nM in experiment [1]; 163 nM in experiment [2]; 100 nM in experiment [3]; 71.9 nM in [4]; 115 nM in experiment [5]; 68.7 nM in experiment [6]. Moreover, the IC50 was 441 nM in experiment [7]; 70.6 nM in experiment [8]; 99.6 nM in [9]; 107 nM in experiment [10]; 74.5 nM in experiment [11]; 313 nM in experiment [12]. Further, the IC50 in [13] stood at 68.2 nM; in experiment [14], 231 nM; in experiment [15], 163 nM; in experiment [16], 99.6 nM; in experiment [17], 368 nM; in experiment [18], 165 nM. The IC50 in experiment [19] was 81.3 nM; in experiment [20], 65.9 nM; in experiment [21] it was 178 nM.
